According to patent US20220213135A1, “DERIVATIVES OF GLYCERO-MANNO-HEPTOSE PHOSPHATE AND THEIR USE IN MODULATING AN IMMUNE RESPONSE” (Shanghai Yao Yuan Biotechnology Co., Ltd., priority 2019, published 2022):

How the values were obtained:
[1] = system: primary mouse hepatocytes (C57/b6); experiment: CCL2 and CCL7 gene expression by qPCR in primary mouse hepatocytes treated for 4 hours; type: cell-based; conditions: for CCL7 gene expression, fold change compared to no treatment (PBS) control: Compound 2 2 nanomolar to 200 nanomolar, Compound 1 200 nanomolar and 2 micromolar; for CCL2 gene expression, fold change compared to no treatment (PBS) control: normalized to GAPDH, Compound 2 200 picomolar to 200 nanomolar, Compound 1 up to 2 micromolar
Experimental: FIG. 2. Compound 2 has unexpected biological activity in liver cells compared to H1BADP (Compound 1). Primary hepatocytes were isolated from fresh mouse livers of C57/b6 background. Cells were cultured in serum-free medium overnight before treatment with either Compound 1 or Compound 2 for 4 hours. Cells were harvested and mRNA expression analyzed by qPCR.
The reference compound, referred to herein also as “Compound 1” (HMP1BP) is an intermediate in the H1b-ADP biosynthetic pathway generated by the dephosphorylation of HBP (FIG. 1). Derivatives of Compound 1 were generated and their activities tested in primary mouse hepatocytes (C57/b6). […] Hepatocytes were first isolated from fresh C57/b6 mouse livers, transferred to serum-free medium, and cultured overnight before treatment with Compound 1 or Compound 2 for 4 hours. Liver cells were then harvested, the mRNA isolated and gene expression of C—C motif chemokine ligand 2 (CCL2) and C—C motif chemokine ligand 7 (CCL7) was analyzed by qPCR and presented as fold change compared to a no treatment (PBS) control. Gene expression was normalized to the expression of the housekeeping gene, glyceraldehyde-3-phosphate dehydrogenase (GAPDH). […] In this assay.

[2] = system: CCL2 and CCL7 gene expression in kidney, esophagus, liver, lung, brain, and stomach; experiment: CCL2 and CCL7 gene expression by qPCR in organs of mice after oral gavage; type: in vivo, mouse; conditions: 4 hours
Experimental: FIG. 4. Compound 2 activates cytokine expression only in the liver. 8 week old C57 females were administrated Compound 2 by oral gavage in 200 ul of Saline and 1.5% DMSO as diluent. Four hours later, organs were dissected and gene expression of CCL2 and CCL7 was analyzed by qPCR in kidney, esophagus, liver, lung, brain, and stomach.
In this experiment, CCL7 was expressed more than 50-fold above the PBS control and CCL2 was expressed more than 20-fold above the control.

[3] = system: chemokine and cytokine expression in liver cells; experiment: Chemokine and cytokine gene expression by qPCR in liver of mice after oral gavage of HMP1BP derivatives; type: in vivo, mouse; conditions: C57 female mice, 1 mg/kg oral gavage
Experimental: FIG. 5A-B. Oral administration of HMP1BP derivatives activates chemokine and cytokine expression in liver cells. 8 week old C57 female mice were administered saline or the indicated compounds by oral gavage, Compounds 2-7 (1 mg·kg) (A) or compounds 9, 10 (1 mg/kg), 11, 13 and 14 (0.1 mg/kg) (B) were tested. Four hours after administration of saline or compound, organs were dissected and gene expression was analyzed by qPCR for CCL2, CCL7, CXCL1, CXCL10, IFNb, IL1b, IL6, and TNFa (A) or CCL2 and CCL7 (B).
Several additional Compound 1 derivatives were tested for cytokine and chemokine gene induction in hepatocytes. […] Mice were treated as described above. Briefly, 8 week-old C57 female mice were separately administered (1 mg/kg) either one of Compounds 2-7 or a saline/DMSO control by oral gavage and 4 hours later the livers were dissected and gene expression analyzed by qPCR. The gene expression results were normalized to GADPH expression. […] The additional genes tested in this experiment are: CXCL1, encoding C—X—C motif chemokine ligand 1; CXCL10, encoding C—X—C motif chemokine ligand 10; IFNb, encoding interferon beta; IL-1b, encoding interleukin 1 beta; IL6, encoding interleukin 6; and TNFα, encoding tumor necrosis factor alpha. […] All the derivatives induced CCL2 and CCL7 more than 20-fold above the control. Compound 2 induced CCL2, CCL7, CXCL10, IFNb, IL6 and TNFα each more than 20-fold.

[4] = system: hepatitis B virus AAV8-1.3 HBV; experiment: AAV8-1.3 HBV mouse model: serum HBV DNA (qPCR), HBsAg and HBeAg (ELISA); type: in vivo; conditions: male C57BL/6 mice, 1 mg/kg per dose, vs PBS
Experimental: FIG. 6A-C. Compound 2 reduces hepatitis infection in murine model. Compound 2 was administered (1 mg/kg PO QD) and serum levels of HBV (A), HbsAg (B), or HbeAg (C) were measured after 7 days.
On day 1, male C57BL/6 mice were intravenously (i.v) injected with hepatitis B virus AAV8-1.3 HBV (1×10^11 v/g) (Beijing Five Plus Molecular Medicine Institute). On day 56 post-injection, each mouse was treated with Compound 2 two times per week (1 mg/kg per dose) or PBS. After seven days of treatment (at day 63 post injection), mouse serum was collected for analysis by qPCR (HBV DNA) and ELISA for Hepatitis B virus surface antigen (HBsAg) and Hepatitis B e-antigen (HBeAg). […] Specifically, the Compound 1 derivatives show tissue-specific liver cell activity and strong induction of cytokine and chemokine genes while also reducing HBV DNA and antigen titers in the serum of infected mice.

ALPK1 = molecular target: T1, ALPK1 (Mus musculus, UniProt Q9CXB8); experiment: Liver chemokine gene expression by qPCR in ALPK1 knockout and wildtype mice after oral treatment; type: in vivo; set-up: from tissue; host or cells: mouse liver (in vivo, wildtype vs ALPK1 knockout mice); conditions: WT mice, oral 0.5 mg/kg, 4 hours, normalized to PBS treated WT mice
T1 sequence (Q9CXB8 1-1231): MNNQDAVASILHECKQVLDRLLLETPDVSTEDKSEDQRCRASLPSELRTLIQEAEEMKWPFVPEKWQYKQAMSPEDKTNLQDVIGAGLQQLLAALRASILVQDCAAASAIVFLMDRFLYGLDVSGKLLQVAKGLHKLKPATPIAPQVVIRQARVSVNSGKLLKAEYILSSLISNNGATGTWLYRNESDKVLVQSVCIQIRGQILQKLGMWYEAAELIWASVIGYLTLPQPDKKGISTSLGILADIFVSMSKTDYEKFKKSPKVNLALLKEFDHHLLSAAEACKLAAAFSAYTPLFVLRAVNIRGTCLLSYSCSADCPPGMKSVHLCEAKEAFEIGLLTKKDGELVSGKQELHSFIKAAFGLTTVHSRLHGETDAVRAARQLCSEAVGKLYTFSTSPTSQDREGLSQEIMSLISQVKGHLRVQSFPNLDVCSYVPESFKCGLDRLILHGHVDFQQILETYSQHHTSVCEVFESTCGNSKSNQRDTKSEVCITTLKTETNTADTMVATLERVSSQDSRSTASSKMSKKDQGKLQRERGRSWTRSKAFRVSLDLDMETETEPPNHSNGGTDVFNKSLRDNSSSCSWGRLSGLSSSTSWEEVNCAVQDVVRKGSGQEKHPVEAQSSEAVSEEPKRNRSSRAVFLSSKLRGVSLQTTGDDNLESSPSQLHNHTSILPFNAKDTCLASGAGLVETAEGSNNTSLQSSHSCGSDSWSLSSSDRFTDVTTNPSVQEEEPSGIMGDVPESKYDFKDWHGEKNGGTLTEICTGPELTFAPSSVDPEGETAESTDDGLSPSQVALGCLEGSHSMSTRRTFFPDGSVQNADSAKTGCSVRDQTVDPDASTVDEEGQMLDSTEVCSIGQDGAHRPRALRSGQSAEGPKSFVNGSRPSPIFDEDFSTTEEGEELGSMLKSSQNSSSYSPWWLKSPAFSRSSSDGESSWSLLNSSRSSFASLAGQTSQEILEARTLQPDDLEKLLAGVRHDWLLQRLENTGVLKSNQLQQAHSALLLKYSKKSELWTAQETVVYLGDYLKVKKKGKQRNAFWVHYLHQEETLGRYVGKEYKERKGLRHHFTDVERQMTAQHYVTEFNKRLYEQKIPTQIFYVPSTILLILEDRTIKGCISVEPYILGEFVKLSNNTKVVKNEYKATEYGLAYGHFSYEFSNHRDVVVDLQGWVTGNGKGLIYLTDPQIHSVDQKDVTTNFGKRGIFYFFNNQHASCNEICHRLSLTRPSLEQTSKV
Experimental: FIG. 3. Compound 2 induces chemokine and cytokine expression via ALPK1. ALPK1 knockout (KO) mice and wildtype (WT) control were treated orally with either PBS or Compound 2 (0.5 mg/kg). Four hours after treatment, livers were dissected for gene expression analysis by qPCR. Expression was normalized to PBS treated WT mice.
ALPK1 knockout (KO) mice and wildtype (WT) control were treated orally with either PBS or Compound 2 (0.5 mg/kg). Four hours after treatment, livers were dissected for gene expression analysis by qPCR. Expression was normalized to PBS treated WT mice.

[5] = liver, 8 week-old C57 female mice
[6] = after seven days of treatment, ELISA

In the case of O=P(O)(O)O[C@@H]1O[C@H]([C@H](O)CO)[C@@H](O)[C@H](O)[C@@H]1O [Compound 1, (2S,3S,4S,5S,6R)-6-((R)-1,2-dihydroxyethyl)-3,4,5-trihydroxytetrahydro-2H-pyran-2-yl dihydrogen phosphate], the “CCL2 gene expression at the highest concentration tested” value ([1]; 2 micromolar) is reported as “only similar to that induced by the lowest concentration (200 picomolar) of Compound 2”, the “CCL7 gene expression, fold change compared to no treatment (PBS) control” value [1] is reported as “only a much smaller induction in CCL7 gene expression” and the “CCL2 gene expression, fold change compared to no treatment (PBS) control” value [1] is reported as “did not significantly induces CCL2 expression relative to the PBS control except at the highest concentration tested”.

In the case of CC(=O)OC[C@H](F)[C@H]1O[C@@H](OP(=O)(Oc2ccccc2)Oc2ccccc2)[C@@H](OC(C)=O)[C@@H](OC(C)=O)[C@@H]1OC(C)=O [Compound 2, (2S,3S,4S,5S,6S)-2-((S)-2-acetoxy-1-fluoroethyl)-6-((diphenoxyphosphoryl)oxy)tetrahydro-2H-pyran-3,4,5-triyl triacetate], the “CCL7 gene expression, fold change compared to no treatment (PBS) control” value [1] is reported as “induced in a dose-dependent manner”, the “CCL2 gene expression, fold change compared to no treatment (PBS) control” value [1] is reported as “significantly induced CCL2 expression in a dose-dependent manner” and the “cytokine and chemokine gene expression in other organs” value ([2]; kidney, esophagus, lung, brain, stomach) is reported as “No other organ tissue analyzed showed cytokine and chemokine gene expression”. The “CCL2 gene expression above the control” value [2, 5] was “more than 20 fold”, the “CCL7 gene expression above the PBS control” value [2, 5] was “more than 50 fold” and the “CCL7 gene induction above the control” value ([3]; 4 hours (FIG. 5A)) was “more than 20 fold”. For the same compound, the CXCL10 gene induction ([3]; 4 hours (FIG. 5A)) was “more than 20 fold”, the IFNb gene induction ([3]; 4 hours (FIG. 5A)) was “more than 20 fold” and the IL6 gene induction ([3]; 4 hours (FIG. 5A)) was “more than 20 fold”. For the same compound, the TNFα gene induction ([3]; 4 hours (FIG. 5A)) was “more than 20 fold”, the “CCL2 gene induction above the control” value ([3]; 4 hours, normalized to GADPH (FIG. 5A)) was “more than 20 fold” and the “HBV DNA copy number in serum” value ([4]; after seven days of treatment (day 63 post injection), qPCR) was “significantly reduced HBV DNA copy number”. The “Hepatitis B e-antigen (HBeAg) in serum” value [4, 6] was “decreased compared to the PBS control”, the “Hepatitis B surface antigen (HBsAg) in serum” value [4, 6] was “decreased compared to the PBS control” and the “expression of CCL2, CCL3, CCL7, and CXCL1 in liver” value (ALPK1) was “induce the expression”.

In the case of CC(=O)OC[C@H](F)C1O[C@@H](OP(=O)(N[C@@H](C)C(=O)OC(C)C)Oc2ccccc2)C(OC(C)=O)[C@@H](OC(C)=O)[C@@H]1OC(C)=O (stereo partly drawn) [Compound 4, (2S,3S,4S,5S,6S)-2-((S)-2-acetoxy-1-fluoroethyl)-6-(((((S)-1-isopropoxy-1-oxopropan-2-yl)amino)(phenoxy)phosphoryl)oxy)tetra-hydro-2H-pyran-3,4,5-triyl triacetate], the IFNb gene induction ([3]; 4 hours (FIG. 5A)) is reported as “strong inductive effect”.
